Data: patent US20260273028A1, “PEROXIDASE COMPOSITIONS CONTAINING IMPROVED ENHANCING AGENTS” (FLEN HEALTH PHARMA NV, priority 2022, published 2026)

Legend:
[1] = target: Lactoperoxidase (Bos taurus, UniProt P80025); assay: Lactoperoxidase (LPO) activity, spectrophotometric assay (ABTS); type: biochemical
Experimental: Lactoperoxidase is a member of the heme peroxidase family of enzymes that, together with a catalytic anion (such as I^−, derived from KI, present in the substrate), will catalyse the oxidation of H2O2, leading to hypojodite (IO^−). This hypojodite is a reactive oxygen species (ROS). To measure the enzymatic activity of LPO, a standard spectrophotometric assay is performed. In brief, H2O2 combined with 2,2′-azino-bis (3-ethylbenzothiazoline-6-sulfonzuur (ABTS) is catalysed by LPO so that the formation of a coloured compound is achieved that can in turn be measured by spectrophotometry. LPO was tested in 3 different concentrations, i.e., 50, 10 and 1 mg/ml. Each reaction mixture was tested in duplo. In the event LPO activity was evaluated in the presence of a potentiator candidate (=a molecule that might be able to augment the enzymatic activity of LPO), the latter was added in a low and high concentration ranging from 100 to 0.1 mg/ml. The blank consisted of the reaction mix in which H2O2 was absent. The absorbance was immediately measured with a plate reader (Spectramax ID3, Molecular Devices) every 12 seconds for 5 minutes at 20° C. For each combination evaluated, this test was repeated at least 2 times. Results were further analysed in MS Excel and expressed as U/g. Mean blank-corrected data±SD were plotted. Statistical significance compared to the combination without potentiator candidate (reference) was calculated using students' t-tests. Significance is achieved when the obtained p-value is lower than 0,05. Significance levels were defined as p<0.05=*; p<0.01=** and p<0.001=***.

[2] = system: Candida albicans ATCC®10231™; assay: MBC determination, broth microdilution with CFU enumeration; type: cell-based; settings: C. albicans; enhancer 0.01%
[3] = system: Candida albicans ATCC®10231™; assay: Absolute microbial counts in function of enzyme solution concentration; type: cell-based; settings: enhancer 0.01%; 0.005%-0.0000391% (v/v) GOX+LPO
Description: (§1) Absolute microbial counts in function of concentration of the antimicrobial agent tested are useful to monitor the bactericidal and fungicidal efficacy of that agent.
(§2) To determine the absolute number of live microorganisms in function of different enzyme solution concentrations tested, a classical broth microdilution assay combined with standard CFU enumeration techniques was used to determine the susceptibility of a series of microbes commonly detected in infected wounds, including (a) the Gram-positive bacterium Staphylococcus aureus ATCC® 6538™ (results shown below), (b) the Gram-negative bacterium Pseudomonas aeruginosa ATCC®9027™ (results shown below), (c) the yeast Candida albicans ATCC®10231™ (results shown below), and (d) the fungus Aspergillus niger ATCC®16404™ (results shown below). In brief, the broth microdilution assay was set up as previously described (see 2.1). After incubation, the absolute microbial count at the MIC and following higher concentrations (MICx2, MICx4, and so on) was determined using standard CFU enumeration techniques. For each combination evaluated, this test was repeated at least 5 times. The collected data were further analyzed in MS Excel and expressed as log CFU/ml. Mean results were plotted in function of enzyme solution concentration.

[4] = system: Staphylococcus aureus ATCC® 6538™; assay: as above; type: cell-based; settings: 0.005%-0.0000391% (v/v) GOX+LPO
Description: as §1, §2

[5] = system: MMP9; assay: Direct neutralization of secreted MMP9 in cell culture supernatants, ELISA; type: biochemical; settings: isoleucine 0.05%; 3 h
Experimental: First, the effect on the secretion of these mediators by macrophages was evaluated. Secondly, the direct neutralization of already secreted mediators was evaluated. Both were measured by the state-of-the-art ELISA technique. Secondly, the direct neutralization of secreted pro-inflammatory mediator representatives IL-6, TNFa and MMP9 was measured in parallel. In brief, cell culture supernatants were collected after 48 h of macrophage differentiation and were centrifuged at 150 g for 5 min to remove cell debris. […] Treated supernatants were kept frozen until being processed for ELISA. IL-6, TNFa and MMP9 ELISA kits were purchased from BioTechne and the experiment was performed according to manufacturer's instructions. Briefly, 96-well plates were coated with capture antibodies overnight at room temperature. […] After several washing steps, the corresponding detection antibody, which is coupled to biotin, was incubated for 2 h. […] The reaction was stopped by the addition of sulphuric acid and absorbance at 450 nm was read with a plate reader. Absorbance is proportional to the concentration of analyte present in the medium, which was calculated based on a standard curve realized with recombinant IL-6, TNFa and MMP9.

| Structure (SMILES) | LPO activity compared to reference ([1]; enhancer 0.1 mg/ml) | LPO activity compared to reference ([1]; enhancer 1 mg/ml) | MBC: GOX+LPO enzyme solution needed [2] | increase in MBC compared to reference [2] | increase in MBC compared to the enhancing molecule guaiacol [2] | reduction in absolute C. albicans counts compared to reference and guaiacol solution [3] | other results |
| --- | --- | --- | --- | --- | --- | --- | --- |
| C[C@@H](O)[C@H](N)C(=O)O [Threonine, threonine] | significant increase | significant increase |  |  |  |  |  |
| NC(=O)C[C@H](N)C(=O)O [Asparagine, asparagine] | significant increase | significant increase |  |  |  |  |  |
| N[C@@H](CO)C(=O)O [Serine, serine] |  |  | 0.0000391 % (v/v) | 4 × | 2 × | stronger reduction | LPO activity compared to reference ([1]; enhancer 100 mg/ml, reference = no potentiator candidate): significant increase; reduction in absolute S. aureus counts compared to reference and guaiacol solution ([4]; enhancer 0.0025-0.00125%): stronger reduction; reduction in absolute S. aureus counts compared to reference and guaiacol solution ([4]; enhancer 10-0.005%): stronger reduction |
| NC(=O)CC[C@H](N)C(=O)O [Glutamine, glutamine] | significant increase | significant increase |  |  |  |  | reduction in absolute S. aureus counts compared to reference and guaiacol solution ([4]; enhancer 0.1%): stronger reduction |
| CC[C@H](C)[C@H](N)C(=O)O [Isoleucine, isoleucine] |  |  | 0.0000391 % (v/v) | 4 × | 2 × | stronger reduction | reduction in absolute S. aureus counts compared to reference and guaiacol solution ([4]; enhancer 0.00125%): stronger reduction; reduction in absolute S. aureus counts compared to reference and guaiacol solution ([4]; enhancer 0.005%): stronger reduction; additional decrease of already secreted MMP9 (direct neutralization) vs GOX+LPO (1:1) alone [5]: 27.1% |
